The nature of the series: in vitro. As to conditions: human, hela cells, % viability.

Usually viability stands for a read-out of living cells in per cent, often relative to untreated cells. In the case of `Cc1ccc(C(=O)Nc2nnc(C3=COCCO3)o2)cc1C` [CBK287413], the viability at 28.5 h, 10 µM worked out at 104%.
Turning to `N#Cc1nc(-c2ccccc2F)oc1NCCCN1CCOCC1` [CBK265881], the viability at 28.5 h, 10 µM amounted to 107%.
`COc1ccccc1C(=O)N[C@H]1C[C@@H](c2nc(-c3cnccn3)no2)N(C)C1` [CBK288850]: the viability at 28.5 h, 10 µM came out at 96%.
The same measure, in the same setting: in the case of `OC(Cc1ccccc1)c1cc2n(n1)CCN(Cc1ccsc1)C2` (centres unmarked) [CBK307603] it was 89.5%.
Regarding `O=C(O)c1cc(S(=O)(=O)Nc2ccc(OCc3ccccc3)cc2)ccc1Br` [CBK297098], the viability at 28.5 h, 10 µM was determined as 113%.
In the case of `CC[C@H]1CCCCN1C(=O)c1sc2nc(C(C)=O)ccc2c1Cl` [CBK091046], the viability at 28.5 h, 10 µM is 101%.
For `N#Cc1ccnc(N2CCN(CC(=O)NCC(F)(F)F)CC2)c1` [CBK305042], the viability at 28.5 h, 10 µM was determined as 95.1%.
As to `O=C(NCCOc1ccc(F)cc1)c1cccs1` [CBK057930], the viability at 28.5 h, 10 µM was 116%.
Consider `COc1ccc(-c2cc3nnc(C)nc3s2)cc1` [CBK025638], for which the viability at 28.5 h, 10 µM is 107%.
`CC(C)(C)OC(=O)NCCCCC(=O)N1CCC(C#N)(c2ccccc2)CC1` [CBK091401]: under “bulk resorufin, single well”, the viability at 28.5 h, 10 µM was found to be 89.4%.
On to `COc1ccc(C(=O)Nc2c(OC)cc(F)cc2OC2CCNCC2)cc1` [CBK050294T], for which the viability at 28.5 h, 10 µM is 97%.
Take `O=C(C1CCCO1)N1CCC(c2onc3c2CCCCC3)CC1` (centres unmarked) [CBK284487]: the viability at 28.5 h, 10 µM was 98.4%.
For the compound `Cc1ccc(C(=O)Nc2c(C(=O)Nc3cccnc3)cnn2-c2ccccc2)cc1` [CBK263056], the viability at 28.5 h, 10 µM was determined as 92.4%.
As for `COc1ccc(C(C)C)cc1-c1cnc2nc(O)ccc2c1` [CBK081286], the viability at 28.5 h, 10 µM came to 94.1%.
`O=C(CN1CCN(c2ccccc2)CC1)Nc1ccc([N+](=O)[O-])cc1C(=O)c1ccccc1` [CBK265799]: the viability at 28.5 h, 10 µM is 89.6%.
Still for that read-out and setting: in the case of `CCn1cnnc1CNC(=O)N1CCCN(Cc2cccs2)CC1` [CBK305882] it was 97.6%; in that of `COc1ccc(C(NC(=O)[C@H]2CCCN2C(=O)NCc2ccccc2C)c2ccccc2C)cn1` (some centres unmarked) [CBK075051], 90.9%; in that of `COc1ccc(Oc2cc(Cl)nc(N)n2)cc1` [CBK261771], 101%.
As to `O=C(NCCc1c[nH]c2ccccc12)N1CCN(Cc2ccccc2)CC1` [CBK155646], the viability at 28.5 h, 10 µM was determined as 78.9%.
Still for that read-out and setting: in the case of `Cc1noc(C2(O)CCN(Cc3cccc(Cl)c3F)C2)n1` (centres unmarked) [CBK304748] it was 99.3%; in that of `COC(=O)c1ccccc1NC(=O)CC1Nc2ccccc2NC1=O` (centres unmarked) [CBK269276A], 91.9%; in that of `COc1cccc(C(C(F)(F)F)P(C)(=O)O)c1` (centres unmarked) [CBK262393], 96.8%.
On the same count and under the same terms, in the case of `Nc1ncc(-c2ccc(C(=O)N3CCOCC3)cc2)cc1C(=O)NCc1ccc(S(N)(=O)=O)cc1` [CBK158597] it was 105%; in that of `COc1ccc2c(c1)c(C(NCc1cccc(C(F)(F)F)c1)C(N)=O)nn2Cc1ccccc1` (centres unmarked) [CBK010715], 100%.
The same measure, in the same setting: next, `COc1ccccc1N1CCN(C(=O)CCC(=O)c2cccs2)CC1` [CBK091498]: 109%; `Cc1ccccc1OCC(=O)NCc1ccc(C(=O)O)cc1` [CBK287155]: 104%.
Consider `CC(=O)[C@H]1C[C@@H](CC(=O)N2CCC(C#N)(c3ccccc3)CC2)C1(C)C` [CBK091393], for which the viability at 28.5 h, 10 µM (bulk resorufin, single well) worked out at 91.5%.
Turning to `Cc1ccccc1-n1c(Cc2ccccc2)nc2c(cnn2-c2ccccc2)c1=O` [CBK262310], the viability at 28.5 h, 10 µM was found to be 91.6%.
Turning to `Cc1ccc(-c2nc3ncccc3o2)cc1NC(=O)c1ccc(F)cc1` [CBK263043], the viability at 28.5 h, 10 µM was determined as 103%.
Take `O=C(O)CC(NS(=O)(=O)c1cccc([N+](=O)[O-])c1)c1ccccc1` (centres unmarked) [CBK262641]: the viability at 28.5 h, 10 µM amounted to 96.4%.
With `O=C(N/N=C\c1c(F)cccc1Cl)c1ccncc1` [CBK023263], the viability at 28.5 h, 10 µM was determined as 84.7%.
As to `CC[C@H]1CN(C(=O)NC(C)C)CC[C@H]1CC(=O)Nc1nccs1` [CBK288774], the viability at 28.5 h, 10 µM is 109%.
On to `Cc1ccc(NC(=O)Cn2nc(C)c([N+](=O)[O-])c2C)cc1Cl` [CBK268336], for which the viability at 28.5 h, 10 µM was 98.5%.
Same read-out and setting: next, `COc1ccc(-c2cc(C(=O)NCC(F)(F)F)cnc2-c2ccc(Cl)cc2)cn1` [CBK036698]: 103%; `Cc1[nH]c2ccccc2c1C(=O)CSc1n[nH]c(N)n1` [CBK268056]: 98.3%.
On the same count and under the same terms, next, `CC(NC(=O)N1CCN(c2ccccc2)CC1)c1ccccc1` (centres unmarked) [CBK155207]: 99.3%; `Oc1cccc(Sc2nc3ccccc3nc2N2CCCC2)c1` [CBK093753]: 88.5%; `CNc1cc(NS(=O)(=O)c2ccc(N)cc2)nc(NC)n1` [CBK011865C]: 96.1%.
For `Cc1cc(O)ccc1-c1cncc(-c2ccc(O)cc2C)n1` [CBK115689], the viability at 28.5 h, 10 µM was 90.5%.
On the same count and under the same terms, in the case of `c1ccc2c(c1)nc1n2CN(Cc2ccc3c(c2)OCO3)CN1` [CBK268087] it was 99.1%.
With `CC1(C)NC(=O)N(CC(O)CN(C2CCCCC2)C2CCCCC2)C1=O` (centres unmarked) [CBK264578], the viability at 28.5 h, 10 µM was found to be 101%.
With `O=S(=O)(Nc1nnn[nH]1)c1ccc(-c2cc(C(F)(F)F)on2)s1` [CBK062393], the viability at 28.5 h, 10 µM is 96.9%.
Still for that read-out and setting: next, `O=C1[C@@H]2CCCN2C(=O)c2ccccc2N1CCN1CCCC1` [CBK282857]: 96.3%; `O=C([C@H]1C[C@@H](O)[C@H](O)[C@@H]2N=C(Nc3ccc4c(c3)OCO4)S[C@@H]21)N1CCCCC1` [CBK288953]: 108%; `CCCCSc1cc(C)nc2ncnn12` [CBK021443]: 105%.
On to `Cc1cc(NS(=O)(=O)c2ccc(NC(=S)NCC3CCCO3)cc2)no1` (centres unmarked) [CBK268160], for which the viability at 28.5 h, 10 µM worked out at 101%.
`CCOc1ccccc1-c1noc(-c2nn(-c3ccc(C)cc3)ccc2=O)n1` [CBK288597]: the viability at 28.5 h, 10 µM is 95.7%.
Still for that read-out and setting: in the case of `CCCC(=O)Nc1ccc(C(=O)N2CCN(CC)CC2)cc1` [CBK304218] it was 88.6%; in that of `C(=N\Nc1nnc(-c2ccccc2)c(-c2ccccc2)n1)/c1cccnc1` [CBK262025], 91.8%.
The same measure, in the same setting: in the case of `O=C(O)C1(Oc2ccc3ccccc3c2)CCN(C2CCNCC2)CC1` [CBK306615] it was 108%; in that of `CCN(CC)C(=O)c1ccsc1NS(=O)(=O)c1cccc2cccnc12` [CBK042317], 87.1%.
Turning to `N#Cc1nccnc1S(=O)(=O)CCO` [CBK023595], the viability at 28.5 h, 10 µM turned out to be 90.1%.
As for `CC(NCc1ccncc1)=C1C(=O)c2ccccc2C1=O` [CBK262890], the viability at 28.5 h, 10 µM is 105%.
Same read-out and setting: in the case of `CS(=O)(=O)Nc1cc2ccccc2c(-c2ccsc2)n1` [CBK085748] it was 89.7%; in that of `NS(=O)(=O)c1ccc(NC(=S)NNC(=O)C2c3ccccc3Oc3ccccc32)cc1` [CBK267024], 99.2%; in that of `Cn1cc(-c2cncn2CCCOc2ccc(Cl)cc2)cn1` [CBK281784], 95.2%.
The same measure, in the same setting: next, `O=S(=O)(c1ccc(Cl)s1)N1CCN(c2ccccc2Cl)CC1` [CBK045098]: 98%.
Take `Nc1ccc2c(O)c(C(=O)NCc3ccc(Cl)cc3)c(=O)[nH]c2c1` [CBK017557]: the viability at 28.5 h, 10 µM came to 91.4%.
Take `CCN(CC)Cc1cc([N+](=O)[O-])cc2c1OCOC2` [CBK296613]: the viability at 28.5 h, 10 µM is 113%.
The same measure, in the same setting: next, `COc1ccc(Cl)cc1/C=C/C(=O)NCc1ccc(C(=O)O)cc1` [CBK286908]: 89.3%; `Cc1cc(NC(=O)c2c(F)cccc2F)nc2c1c(=O)oc1ccccc12` [CBK291115]: 110%; `CN(C)c1ccc(-c2nnnn2[C@H]2CO[C@H]3[C@@H]2OC[C@H]3O)cc1` [CBK289481]: 76.7%.
Take `CCOC(=O)c1cccc(-n2ncc(CN(C)C)n2)c1` [CBK112866]: the viability at 28.5 h, 10 µM was 91.4%.
For `O=C(Cn1cnnn1)NC1CCCC1` [CBK200372], the viability at 28.5 h, 10 µM was found to be 94.9%.
Regarding `COc1ccc(NC(=O)Nc2nn(Cc3c(F)cccc3Cl)cc2Br)c(OC)c1` [CBK266834], the viability at 28.5 h, 10 µM turned out to be 83.8%.
With `Cc1onc(-c2ccccc2)c1C(=O)NCc1ccccc1` [CBK200116], the viability at 28.5 h, 10 µM stood at 99.4%.
Take `COCC(=O)NC(C)c1nc2ccccc2n1Cc1ccccc1C` (centres unmarked) [CBK269885]: the viability at 28.5 h, 10 µM is 88.1%.
In the case of `N#Cc1ccc(S(=O)(=O)N2CCC(OCc3ccncc3)C2)cn1` (centres unmarked) [CBK305478], the viability at 28.5 h, 10 µM turned out to be 91%.
For `COCC(=O)N1CCc2sccc2C1c1ccc(NC(=O)c2ccccc2F)cc1` (centres unmarked) [CBK286469], the viability at 28.5 h, 10 µM was found to be 87.5%.
Consider `CC(C)(CO)Cn1c(=O)[nH]c2ncc(-c3ccc(F)c(Cl)c3)nc21` [CBK064737], for which the viability at 28.5 h, 10 µM was found to be 102%.
Regarding `O=C(O)C[C@@H]1CCN(C(=O)c2ccco2)C[C@@H]1CC1=NCCc2cc(F)ccc21` [CBK289166], the viability at 28.5 h, 10 µM amounted to 91.1%.
Consider `Cc1occc1-c1nnc(NCc2cnn(C)c2C)o1` [CBK304819], for which the viability at 28.5 h, 10 µM worked out at 92.3%.
Consider `C=CCn1ncc(CN(CCN(C)C)Cc2ccc(C)o2)c1C` [CBK282846], for which the viability at 28.5 h, 10 µM came to 81.3%.
For the compound `CCC(C)(C)C1CCC(NC(=O)CSCCC(=O)O)CC1` (centres unmarked) [CBK296674], the viability at 28.5 h, 10 µM was found to be 107%.
For `Cc1cnn(CC(=O)N2CCC(c3cc4ncccc4[nH]3)CC2)c1` [CBK284458], the viability at 28.5 h, 10 µM is 77.2%.
On to `CC(=O)Nc1cccc(-c2nccnc2NS(C)(=O)=O)c1` [CBK050740], for which the viability at 28.5 h, 10 µM was determined as 108%.
The same measure, in the same setting: next, `CCC1CCCCN1C(=O)c1cc(C)ccc1F` (centres unmarked) [CBK082754]: 108%; `COc1ccc(-c2nn(-c3ccccc3)cc2/C=C2\SC(N3CC(C)OC(C)C3)=NC2=O)cc1F` (centres unmarked) [CBK265613]: 100%; `O=C(NCc1ccco1)c1cc(-c2ccc3[nH]ccc3c2)cnc1NCCOc1ccccc1` [CBK106388]: 89.9%.
For `O=C1c2ccccc2C(=O)N1c1ccc2nc(SCc3nc4ccccc4[nH]3)sc2c1` [CBK263368], the viability at 28.5 h, 10 µM was 95%.
